Consider four compounds from patent US20140303123A1, “SYNTHESIZING FUNCTIONALIZED DENDRIMERS WITHIN BIOLOGICAL SETTINGS” (priority 2011, published 2014).

The test system of one test is folate receptor. Particulars: relative to folic acid; cited from earlier work.
Test [1] relates to FRα over-expressing KB cells. The test can be described thus: Uptake of dendrimer conjugates in KB cells, in situ CuAAC detection with fluorescent azide, flow cytometry. It is filed as cell-based. Conditions: increasing concentrations, 1 hour at 37° C., Alexa647-azide detection (FIG. 2A). In general terms: In flow cytometry, cells or beads pass a laser one at a time.
Experimental: KB cells were cultured in RPMI 1640 medium without folic acid for at least 4 days before experiments, resulting in the folic acid receptor overexpressing KB (FAR-KB) cell line. […] For the flow cytometry measurements, cells were seeded on a 12-well plate for tissue culture at a concentration of 23105 cells/well and grown in folic acid deficient RPMI 1640 media (Mediatech, Herndon, Va.) at 37° C., 5% CO2 for 24 hr. The cells were then incubated with the series of the prepared nanodevices at either 37° C. for 1 hr. After removal of supernatants, cells were trypsinized and collected into FACS tubes, followed by centrifugation at 1500 rpm for 5 min to obtain cell pellets. […] Fluorescence signal intensities from the samples were measured using a Coulter EPICS/XL MCL Beckman-Coulter flow cytometer, and data were analyzed using FloJo 8.2 software (TreeStar).
After 4% paraformaldehyde fixation and permeabilization with 10% saponin in PBS and BSA, cells were rinsed and then stained by incubating cells for 30 min with 100 mM Tris (pH 8.5), 1 mM CuSO4, 1-100 μM fluorescent azide (in DMSO), and 100 mM ascorbic acid (added last to the mix in 0.5 M stock in water). […] After staining, cells were washed with 10% saponin solution and assessed by flow cytometry.
The subject of test [2] is CD11b+ macrophages (peritoneal macrophages, lymph nodes). The experiment in a line: In vivo trafficking of FA-targeted dendrimer nanoparticles in a murine model of inflammation (thioglycollate IP). Conditions: thioglycollate-stimulated mice, 35 mg/kg IP on day 3, cells isolated day 4 (FIG. 6); for uptake in peritoneal macrophages (PEM): 35 mg/kg. As to the method:
Mice (n=2) were stimulated with thioglycollate IP. 3 days following thioglycollate, mice were administered 200 μl (35 mg/kg) folate functionalized dendrimer alkyne scaffolds. One day later (day 4), peritoneal macrophages (PEM), spleen, cervical lymph nodes, and mesenteric lymph nodes were isolated and processed into single-cell suspensions. Suspensions were stained with a CD11b monoclonal PE antibody and then fixed and permeabilized. Cell suspensions were then reacted with AlexaFluor 647-azide to detect dendrimer conjugates and analyzed by flow cytometry.
On day 1, mice (n=2) were treated IP with thioglycollate to stimulate folate receptor positive macrophage infiltration into the peritoneal cavity (see, e.g., Xia, W. et al. Blood 113, 438-446 (2005); herein incorporated by reference in its entirety). On day 3, mice were administered folate targeted dendrimers IP (35 mg/kg). On day 4, peritoneal macrophages (PEM) as well as the spleen, submandibular lymph nodes, and mesenteric lymph nodes were isolated and processed as using standard techniques. Single cell suspensions were made and analyzed by flow cytometry for co-expression of the macrophage marker CD11b and the FA-dendrimer scaffolds. […] Compared to the cervical lymph nodes (secondary lymph organs not draining the peritoneal cavity), there was a greater proportion of double-positive CD11b and FR cells in the mesenteric lymph nodes consistent with the trafficking of these activated macrophages.

Test [3] deals with bone marrow derived macrophages (BMDM). Particulars: BMDMs differentiated with IL-4 and IL-10, 30 nM, 6 hours at 37° C. (FIG. 4).
Experimental: Bone marrow derived macrophages (BMDM) were obtained as previously described. Briefly, bone marrow precursors from female C57BL/6 mice were isolated and propagated for 7 days in RPMI 1640 supplemented with penicillin (100 units/ml), streptomycin (100 mg/ml), and 10% heat inactivated low endotoxin fetal bovine serum with L-conditioned media. Following propagation, BMDMs were polarized with murine recombinant proteins M-CSF (10 ng/ml), IL4 (50 ng/ml), IL10 (10 ng/ml), or GM-CSF (10 ng/ml) for 72 hours (Peprotech). For the flow cytometry measurements, cells were seeded on a 12-well plate for tissue culture at a concentration of 23105 cells/well and grown in folic acid deficient RPMI 1640 media (Mediatech, Herndon, Va.) at 37° C., 5% CO2 for 24 hr. […] Fluorescence signal intensities from the samples were measured using a Coulter EPICS/XL MCL Beckman-Coulter flow cytometer, and data were analyzed using FloJo 8.2 software (TreeStar).
After 4% paraformaldehyde fixation and permeabilization with 10% saponin in PBS and BSA, cells were rinsed and then stained by incubating cells for 30 min with 100 mM Tris (pH 8.5), 1 mM CuSO4, 1-100 μM fluorescent azide (in DMSO), and 100 mM ascorbic acid (added last to the mix in 0.5 M stock in water). […] After staining, cells were washed with 10% saponin solution and assessed by flow cytometry. […]

Turning to `CN(Cc1cnc2nc(N)nc(N)c2n1)c1ccc(C(=O)N[C@@H](CCC(=O)O)C(=O)O)cc1` [methotrexate], the “affinity for the folate receptor in comparison to folic acid (lower)” value with folate receptor was 100 fold.

For the compound “G5-NHAc80-Alkyne8-FA4-Gly [FA-dendrimer alkyne conjugates]”, the cellular uptake entry in test [1] is “dose-dependent cellular uptake”. Further, the “uptake in CD11b+ cells in the mesenteric lymph nodes” value in test [2] is recorded as “significant uptake”. In addition, the “uptake in peritoneal macrophages (PEM)” value in test [2] (listed as FA-dendrimer nanoparticles) was “much higher uptake”; in test [2] (listed as folate nanodevices), “significant uptake”.

Consider “G5-NHAc80-Alkyne12-Gly [non-targeted dendrimer conjugates]”, for which the cellular uptake result in test [1] was “did not demonstrate any significant uptake”.

For “G5-NHAc80-Alkyne12-Mannose15-Gly [mannose-targeted dendrimers]”, the “binding and uptake compared to non-targeted controls” value in test [3] is “increased binding and uptake”.
